Nc1c([N+](=O)[O-])c2no[n+]([O-])c2c2no[n+]([O-])c12
solubility (mole fraction)
Conditions	288.15 K	293.15 K	298.15 K	303.15 K	308.15 K	313.15 K	318.15 K	323.15 K	328.15 K	333.15 K
in 1,2-dichloroethane	2.98e-05	3.64e-05	4.41e-05	5.31e-05	6.32e-05	7.49e-05	8.9e-05	0.000105	0.000122	0.000142
in DMF	0.00618	0.00747	0.00896	0.0107	0.0126	0.0149	0.0175	0.0204	0.0236	0.0273
in DMSO	–	0.0118	0.0138	0.0161	0.0187	0.0217	0.0249	0.0286	0.0327	0.0373
in NMP	0.00799	0.00948	0.0112	0.0131	0.0153	0.0178	0.0206	0.0237	0.0272	0.031
in acetic acid	–	7.86e-05	9.36e-05	0.000112	0.000131	0.000154	0.000178	0.000206	0.000237	0.000271
in acetone	0.000797	0.00087	0.000968	0.00109	0.00123	0.00137	0.00154	0.00174	–	–
in acetonitrile	0.000322	0.000374	0.000434	0.000497	0.00057	0.000654	0.000744	0.000845	0.000956	0.00108
in cyclohexanone	0.0018	0.00198	0.00218	0.0024	0.00266	0.00295	0.00328	0.00366	0.00409	0.00457
in dichloromethane	1.37e-05	1.73e-05	2.15e-05	2.68e-05	3.31e-05	–	–	–	–	–
in ethanol	6.85e-06	8.94e-06	1.18e-05	1.52e-05	1.95e-05	2.47e-05	3.14e-05	3.94e-05	4.92e-05	6.02e-05
in ethyl acetate	0.000211	0.000244	0.00028	0.000321	0.000367	0.000419	0.000475	0.000536	0.000605	0.000681
in methanol	1.44e-05	1.88e-05	2.42e-05	3.14e-05	4.01e-05	5.01e-05	6.33e-05	7.91e-05	9.73e-05	0.000121
in o-xylene	2.4e-05	3.15e-05	4.14e-05	5.34e-05	6.87e-05	8.74e-05	0.000109	0.000137	0.000169	0.000208
in propionic acid	1.94e-05	2.45e-05	3.15e-05	3.97e-05	4.97e-05	6.16e-05	7.63e-05	9.37e-05	0.000114	0.00014
in toluene	1.03e-05	1.34e-05	1.84e-05	2.45e-05	3.26e-05	4.29e-05	5.63e-05	7.28e-05	9.4e-05	0.00012

— BigSolDB 2.1
